Literature values as cited in Sander's compilation of Henry's law constants (doi:10.1016/j.chemosphere.2007.04.088).

Test: Henry solubility constant Hcp at 298.15 K (mol/(m3 Pa))
Conditions: reference: Warneck (2007); cited value

| Compound | Henry solubility constant Hcp |
| --- | --- |
| ClCC(Cl)(Cl)Cl [1,1,1,2-tetrachloroethane] | 0.0042 |
| CC(Cl)(Cl)Cl [1,1,1-trichloroethane] | 0.0006 |
| ClC(Cl)C(Cl)Cl [1,1,2,2-tetrachloroethane] | 0.024 |
| ClCC(Cl)Cl [1,1,2-trichloroethane] | 0.011 |
| C=C(Cl)Cl [1,1-dichloroethene] | 0.00037 |
| CCCl [chloroethane] | 0.00083 |
| C=CCl [chloroethene] | 0.00038 |
| ClCCl [dichloromethane] | 0.0039 |
| ClC(Cl)=C(Cl)Cl [tetrachloroethene] | 0.00062 |
| ClC(Cl)(Cl)Cl [tetrachloromethane] | 0.00036 |
| ClC=C(Cl)Cl [trichloroethene] | 0.0011 |
